US6395906B1, “Intermediates to pesticidal 1-arylpyrazoles” (Rhone-Poulenc Inc., priority 1995, dated 2002)

What was measured:
Format in all cases: in vivo
[1] = test system: western corn rootworm (Diabrotica virgifera virgifera); assay: Western corn rootworm (WCRW) soil test; settings: soil concentration 0.15 or 0.5 ppm; neonate larvae, mortality six days after infestation
Procedure: (§1) For the tick, aphids, souther armyworm, tobacco budworm, house fly, Mexican bean beetle, American cockroach, cat flea, souther corn rootworm, western corn rootworm, black cutworm, and southern root-knot nematode, a solution or suspension was prepared by adding the test compound to a solution of dimethylformamide, acetone, emulsifiers which are alkylaryl polyether alcohols organic sulfonates, and water. The result was a 100 or 500 ppm concentration of the test compound.
For the western corn rootworm test, the water-acetone-DMF-emulsifier solution was adjusted for a treatment rate of 0.15 or 0.5 ppm.
Western corn rootworm (WCRW): The 500 ppm test formulation was applied to dry sandy loam soil contained in a glass jar for a soil concentration of 0.15 or 0.5 ppm. As an untreated control, an aliquot of a water-acetone-DMF-emulsifier solution containing no test compound was applied in a similar manner. After incubating covered for 24 hours, the soil was mixed and four germinated corn seedlings were added to the jar. Ten neonate western corn rootworm larvae were placed in the jar. Six days after infestation, mortality was assessed by Berlese funnel extraction.

[2] = test system: house fly (Musca domestica); assay: House fly (HF) bait test; settings: sucrose bait, 100 or 250 ppm; adult flies, mortality after 24 hours
Procedure: as §1
For house fly tests, the water-acetone-DMF-emulsifier solution was adjusted with a 20% by weight aqueous solution of sucrose to provide a final 100 or 250 ppm concentration of the test compound.
House fly (HF): Four to six day old adult house flies were used. The files were immobilized by anesthetizing with carbon dioxide. A bait cup was prepared which contained the 100 or 250 ppm test compound formulation/sucrose solution and one or two absorbent cotton pad(s). As an untreated control, a water-acetone-DMF-emulsifier-sucrose solution containing no test compound was applied in a similar manner. The bait cup was introduced inside the cage prior to admitting 12-25 anesthetized flies. Mortality was assessed after 24 hours.

[3] = test system: tobacco budworm (Heliothis virescens); assay: Tobacco budworm (TBW) treated cotton leaf test; settings: cotton leaves, 100 ppm; second instar larvae, five days
Procedure: as §1
Tobacco budworm (TBW): Cotton leaves were wet to runoff with the 100 ppm test compound formulation. As an untreated control, a water-acetone-DMF-emulsifier solution containing no test compound was also applied wet to runoff to cotton leaves. Ten randomly selected second instar tobacco budworm larvae were introduced into plastic containers in which moist dental wicks and the dry treated leaves had been placed. The cups were closed and held for five days. Larvae which were unable to move the length of the body, even upon stimulation by prodding, were considered dead.

[4] = test system: American cockroach (Periplaneta americana); assay: American cockroach (ACR) treated food pellet test; settings: food pellets with 500 ppm formulation; nymphs, contact and feeding mortality 1 and 5 days after infestation
Procedure: as §1
American cockroach (ACR): Cat food or dog food pellets were added to jars containing 1-2 mls of the 500 ppm test formulation. As an untreated control, an aliquot of a water-acetone-DMF-emulsifier solution containing no test compound was applied in a similar manner. After 48 hours, roach nymphs were added to the jar. Contact and feeding mortally was assessed 1 and 5 days after infestation.

[5] = test system: southern corn rootworm (Diabrotica undecimpunctata howardi); assay: Southern corn rootworm (SCRW) soil test; settings: soil concentration 2.5, 5, 6.75 or 10 ppm; mortality eight days after infestation
Procedure: as §1
For southern corn rootworm and black cutworm tests, the water-acetone-DMF-emulsifier solution was adjusted for a treatment rate of 2.5, 5, 6.75 or 10 ppm.
Southern corn rootworm (SCRW), Black cutworm (BCW): Corn seeds were placed in a glass jar and covered with dry sandy loam soil. The 500 ppm test formulation was applied for a soil concentration of 2.5, 5, 6.75 or 10 ppm. As an untreated control, an aliquot of a water-acetone-DMF-emulsifier solution containing no test compound was applied in a similar manner. After incubating covered for 24 hours, the soil was mixed and inoculated with approximately 25 southern corn rootworm eggs. Following an additional 48 hours, two late second to early third instar black cutworms were placed in the jar with a portion of insect diet. Eight days after infestation, mortality was assessed visually for cutworm and by Berlese funnel extraction for rootworm.

[6] = test system: southern armyworm (Spodoptera eridania); assay: Southern armyworm (SAW) treated bean leaf test; settings: bean leaves, 100 or 500 ppm; second instar larvae, five days
Procedure: as §1
Southern armyworm (SAW), Mexican bean beetle (MBB): Bean leaves were wet to runoff with the 100 or 500 ppm test compound formulation. As an untreated control, a water-acetone-DMF-emulsifier solution containing no test compound was also applied wet to runoff to bean leaves. Five or six randomly selected second instar southern armyworn larvae or Mexican bean bettle larvae were introduced into each plastic container with the dry treated leaves. The container was closed and held for five days. Larvae which were unable to move the length of the body, even upon stimulation by prodding, were considered dead.

[7] = test system: southern root-knot nematode (Meloidogyne incognita); assay: Southern root-knot nematode (SRKN) soil test; settings: soil treatment 23 kg/ha; tomato or cotton root galling rated after 2-3 weeks
Procedure: as §1
For the southern root-knot nematode tests, the water-acetone-DMF-emulsifier solution was adjusted for a treatment rate of 23 kg/ha soil concentration.
Southern root-knot nematode (SRKN): Eggs and second stage juveniles (J2s) of southern root-knot nematodes were obtained from infected roots of reared tomato plants. Pots containing moist soil were treated with the test compound solution for a treatment rate of 23 kg/ha. As an untreated control, an aliquot of a water-acetone-DMF-emulsifier solution containing no test compound was applied in a similar manner. Immediately after treatment, eggs or J2s of southern root-knot nematode were added to the treated soil. For test with cotton, the seeds were placed on top of the soil the day of treatment and inoculation. For the tests with tomato, the seedlings were transplanted in the pot three days after treatment. The pots were kept in the greenhouse for 2-3 weeks. At the termination of the test, roots of the tomato or cotton seedlings were evaluated for galling on a rating scale from 1 to 5 with one equal to severe galling, relative to untreated control, and five to no galling, i.e., complete control.

[8] = test system: cotton aphid (Aphis gossypii); assay: Cotton aphid (CA) foliar spray test; settings: cotton plants wet to runoff, 100 or 500 ppm; dead aphids counted after three days
Procedure: as §1
Buckthorn aphid (BA) or cotton aphid (CA): Adult and nymphal stages of buckthorn or cotton aphid were reared on potted dwarf nasturtium or cotton plants, respectively. Plants infested with 100-150 aphids were wet to runoff with the 100 or 500 ppm test compound formulation. As an untreated control, a water-acetone-DMF-emulsifier solution containing no test compound was also applied to runoff to infested plants. The treated plants were stored for one day for buckthorn aphid and three days for cotton aphid, after which the dead aphids were counted.

| SMILES | WCRW [1] | HF [2] | TBW [3] | ACR [4] | SCRW [5] | SAW [6] | SRKN [7] | CA [8] |
| --- | --- | --- | --- | --- | --- | --- | --- | --- |
| COC(OC)c1c(SC(F)(F)F)c(C#N)nn1-c1c(Cl)cc(C(F)(F)F)cc1Cl [Compound 4, 3-Cyano-1-(2,6-dichloro-4-trifluoromethylphenyl)-5-dimethoxymethyl-4-trifluoromethylthiopyrazole] | + (active against 1 or more insects described above up to 100% mortality. This activity is indicated by a “+”) | – | – | – | – | – | – | – |
| COC(C#N)c1c(S(=O)(=O)C(F)(F)F)c(C#N)nn1-c1c(Cl)cc(C(F)(F)F)cc1Cl (stereo not shown) [Compound 16, 3-Cyano-5-{(1-cyano-1-methoxy)methyl}-1-(2,6-dichloro-4-trifluoromethylphenyl)-4-trifluoromethylsulfonylpyrazole] | + (active against 1 or more insects described above up to 100% mortality. This activity is indicated by a “+”) | + (active against 1 or more insects described above up to 100% mortality. This activity is indicated by a “+”) | + (active against 1 or more insects described above up to 100% mortality. This activity is indicated by a “+”) | + (active against 1 or more insects described above up to 100% mortality. This activity is indicated by a “+”) | + (active against 1 or more insects described above up to 100% mortality. This activity is indicated by a “+”) | + (active against 1 or more insects described above up to 100% mortality. This activity is indicated by a “+”) | – | – |
| N#Cc1nn(-c2c(Cl)cc(C(F)(F)F)cc2Cl)c(C=O)c1SC(F)(F)F [Compound 2, 3-Cyano-1-(2,6-dichloro-4-trifluoromethylphenyl)-5-formyl-4-trifluoromethylthiopyrazole] | + (active against 1 or more insects described above up to 100% mortality. This activity is indicated by a “+”) | – | – | – | – | – | – | – |
| COC(OC)c1c([S+]([O-])C(F)(F)F)c(C#N)nn1-c1c(Cl)cc(C(F)(F)F)cc1Cl (stereo not shown) [Compound 13, 3-Cyano-1-(2,6-dichloro-4-trifluoromethylphenyl)-5-dimethoxymethyl-4-trifluoromethylsulfinylpyrazole] | + (active against 1 or more insects described above up to 100% mortality. This activity is indicated by a “+”) | – | + (active against 1 or more insects described above up to 100% mortality. This activity is indicated by a “+”) | + (active against 1 or more insects described above up to 100% mortality. This activity is indicated by a “+”) | – | – | + (active against 1 or more insects described above up to 100% mortality. This activity is indicated by a “+”) | + (active against 1 or more insects described above up to 100% mortality. This activity is indicated by a “+”) |
| COC(OC)c1c(S(=O)(=O)C(F)(F)F)c(C#N)nn1-c1c(Cl)cc(C(F)(F)F)cc1Cl [Compound 15, 3-Cyano-1-(2,6-dichloro-4-trifluoromethlphenyl)-5-dimethoxymethyl-4-trifluoromethylsulfonylpyrazole] | + (active against 1 or more insects described above up to 100% mortality. This activity is indicated by a “+”) | + (active against 1 or more insects described above up to 100% mortality. This activity is indicated by a “+”) | – | + (active against 1 or more insects described above up to 100% mortality. This activity is indicated by a “+”) | + (active against 1 or more insects described above up to 100% mortality. This activity is indicated by a “+”) | + (active against 1 or more insects described above up to 100% mortality. This activity is indicated by a “+”) | + (active against 1 or more insects described above up to 100% mortality. This activity is indicated by a “+”) | + (active against 1 or more insects described above up to 100% mortality. This activity is indicated by a “+”) |
| COC(C#N)c1c(SC(F)(F)F)c(C#N)nn1-c1c(Cl)cc(C(F)(F)F)cc1Cl (stereo not shown) [Compound 6, 3-Cyano-5-{(1-cyano-1-methoxy)methyl}-1-(2,6-dichloro-4-trifluoromethylphenyl)-4-trifluoromethylthiopyrazole] | + (active against 1 or more insects described above up to 100% mortality. This activity is indicated by a “+”) | + (active against 1 or more insects described above up to 100% mortality. This activity is indicated by a “+”) | – | – | + (active against 1 or more insects described above up to 100% mortality. This activity is indicated by a “+”) | + (active against 1 or more insects described above up to 100% mortality. This activity is indicated by a “+”) | – | + (active against 1 or more insects described above up to 100% mortality. This activity is indicated by a “+”) |
| CN(C)N=Cc1c(SC(F)(F)F)c(C#N)nn1-c1c(Cl)cc(C(F)(F)F)cc1Cl [Compound 11, 3-Cyano-1-(2,6-dichloro-4-trifluoromethylphenyl)-5-(N,N-dimethylaminoiminomethylidenyl)-4-trifluoromethylthiopyrazole] | + (active against 1 or more insects described above up to 100% mortality. This activity is indicated by a “+”) | + (active against 1 or more insects described above up to 100% mortality. This activity is indicated by a “+”) | – | – | + (active against 1 or more insects described above up to 100% mortality. This activity is indicated by a “+”) | – | – | – |
